{"source": "patent US6426369B1", "about": "“Oxethazaine as antimicrobial agent” (Eisai Co., Ltd., priority 1997, dated 2002)", "system": "H. pylori", "test": "Antimicrobial activity test 6: oxethazaine in combination with an antibiotic (AMPC, CAM, RXM), checker board method", "format": "cell-based, Helicobacter pylori", "parameters": "key to growth of H. pylori: “−” indicates the inhibited growth of H. pylori (presence of antimicrobial activity); “+” indicates the growth of H. pylori (absence of antimicrobial activity)", "details": "for growth of H. pylori: oxethazaine μg/ml: 100, 50, 25, 12.5, 6.25, 3.13, 0", "excerpt": "The effect of combined use with amoxicillin (AMPC), clarithromycin (CAM) or roxithromycin (RXM) was examined in the same manner as in antimicrobial activity test 1, using the checker board method.", "key": {"[1]": {"details": "combined use with oxethazaine, out of 15 strains (AMPC), 21 strains (CAM), 22 strains (RXM)"}}, "data": [{"smiles": "CC[C@H]1OC(=O)[C@H](C)[C@@H](O[C@H]2C[C@@](C)(OC)[C@@H](O)[C@H](C)O2)[C@H](C)[C@@H](O[C@@H]2O[C@H](C)C[C@H](N(C)C)[C@H]2O)[C@](C)(O)C[C@@H](C)/C(=N\\OCOCCOC)[C@H](C)[C@@H](O)[C@]1(C)O", "note": "[roxithromycin]", "values": [{"measurement": "additive effect, number of strains", "setting": "[1]", "value": 19, "unit": "strains/"}, {"measurement": "synergism, number of strains", "setting": "[1]", "value": 4, "unit": "strains/"}, {"measurement": "growth of H. pylori", "setting": "strain EH 12, RXM 0.05 μg/ml", "value": "+"}, {"measurement": "growth of H. pylori", "setting": "strain EH 12, RXM 0.1 μg/ml", "value": "+"}, {"measurement": "growth of H. pylori", "setting": "strain EH 12, RXM 0.2 μg/ml", "value": "−"}, {"measurement": "growth of H. pylori", "setting": "strain EH 12, RXM 0.4 μg/ml", "value": "−"}, {"measurement": "growth of H. pylori", "setting": "strain EH 12, RXM 0.8 μg/ml", "value": "−"}, {"measurement": "growth of H. pylori", "setting": "strain EH 12, RXM 1.56 μg/ml", "value": "−"}, {"measurement": "growth of H. pylori", "setting": "strain EH 12, RXM 3.13 μg/ml", "value": "−"}, {"measurement": "growth of H. pylori", "setting": "strain EH 12, RXM 6.25 μg/ml", "value": "−"}, {"measurement": "growth of H. pylori", "setting": "strain EH 12, RXM 12.5 μg/ml", "value": "−"}, {"measurement": "growth of H. pylori", "setting": "strain EH 12, RXM 25 μg/ml", "value": "−"}, {"measurement": "growth of H. pylori", "setting": "strain EH 12, RXM 50 μg/ml", "value": "−"}, {"measurement": "growth of H. pylori", "setting": "strain EH 12, RXM 100 μg/ml", "value": "−"}, {"measurement": "growth of H. pylori", "setting": "strain EH 13, RXM 0.05 μg/ml", "value": "+"}, {"measurement": "growth of H. pylori", "setting": "strain EH 13, RXM 0.1 μg/ml", "value": "+"}, {"measurement": "growth of H. pylori", "setting": "strain EH 13, RXM 0.2 μg/ml", "value": "−"}, {"measurement": "growth of H. pylori", "setting": "strain EH 13, RXM 0.4 μg/ml", "value": "−"}, {"measurement": "growth of H. pylori", "setting": "strain EH 13, RXM 0.8 μg/ml", "value": "−"}, {"measurement": "growth of H. pylori", "setting": "strain EH 13, RXM 1.56 μg/ml", "value": "−"}, {"measurement": "growth of H. pylori", "setting": "strain EH 13, RXM 3.13 μg/ml", "value": "−"}, {"measurement": "growth of H. pylori", "setting": "strain EH 13, RXM 6.25 μg/ml", "value": "−"}, {"measurement": "growth of H. pylori", "setting": "strain EH 13, RXM 12.5 μg/ml", "value": "−"}, {"measurement": "growth of H. pylori", "setting": "strain EH 13, RXM 25 μg/ml", "value": "−"}, {"measurement": "growth of H. pylori", "setting": "strain EH 13, RXM 50 μg/ml", "value": "−"}, {"measurement": "growth of H. pylori", "setting": "strain EH 13, RXM 100 μg/ml", "value": "−"}, {"measurement": "growth of H. pylori", "setting": "strain NCTC11637, RXM 0.05 μg/ml", "value": "+"}, {"measurement": "growth of H. pylori", "setting": "strain NCTC11637, RXM 0.1 μg/ml", "value": "+"}, {"measurement": "growth of H. pylori", "setting": "strain NCTC11637, RXM 0.2 μg/ml", "value": "−"}, {"measurement": "growth of H. pylori", "setting": "strain NCTC11637, RXM 0.4 μg/ml", "value": "−"}, {"measurement": "growth of H. pylori", "setting": "strain NCTC11637, RXM 0.8 μg/ml", "value": "−"}, {"measurement": "growth of H. pylori", "setting": "strain NCTC11637, RXM 1.56 μg/ml", "value": "−"}, {"measurement": "growth of H. pylori", "setting": "strain NCTC11637, RXM 3.13 μg/ml", "value": "−"}, {"measurement": "growth of H. pylori", "setting": "strain NCTC11637, RXM 6.25 μg/ml", "value": "−"}, {"measurement": "growth of H. pylori", "setting": "strain NCTC11637, RXM 12.5 μg/ml", "value": "−"}, {"measurement": "growth of H. pylori", "setting": "strain NCTC11637, RXM 25 μg/ml", "value": "−"}, {"measurement": "growth of H. pylori", "setting": "strain NCTC11637, RXM 50 μg/ml", "value": "−"}, {"measurement": "growth of H. pylori", "setting": "strain NCTC11637, RXM 100 μg/ml", "value": "−"}, {"measurement": "growth of H. pylori", "setting": "strain NCTC11639, RXM 0.05 μg/ml", "value": "+"}, {"measurement": "growth of H. pylori", "setting": "strain NCTC11639, RXM 0.1 μg/ml", "value": "+"}, {"measurement": "growth of H. pylori", "setting": "strain NCTC11639, RXM 0.2 μg/ml", "value": "+"}, {"measurement": "growth of H. pylori", "setting": "strain NCTC11639, RXM 0.4 μg/ml", "value": "+"}, {"measurement": "growth of H. pylori", "setting": "strain NCTC11639, RXM 0.8 μg/ml", "value": "−"}, {"measurement": "growth of H. pylori", "setting": "strain NCTC11639, RXM 1.56 μg/ml", "value": "−"}, {"measurement": "growth of H. pylori", "setting": "strain NCTC11639, RXM 3.13 μg/ml", "value": "−"}, {"measurement": "growth of H. pylori", "setting": "strain NCTC11639, RXM 6.25 μg/ml", "value": "−"}, {"measurement": "growth of H. pylori", "setting": "strain NCTC11639, RXM 12.5 μg/ml", "value": "−"}, {"measurement": "growth of H. pylori", "setting": "strain NCTC11639, RXM 25 μg/ml", "value": "−"}, {"measurement": "growth of H. pylori", "setting": "strain NCTC11639, RXM 50 μg/ml", "value": "−"}, {"measurement": "growth of H. pylori", "setting": "strain NCTC11639, RXM 100 μg/ml", "value": "−"}]}]}
